From PubChem BioAssay (NCI)
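All cell lines were grown in 96-well plates and treated with compound for 48 hours. GI50 is the concentration that inhibits growth by half. TGI marks complete inhibition of growth.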

Columns and labels:
Experiment in all cases: growth of human tumour cells (NCI), 48 h
[1] = system: ACHN renal
[2] = system: TK-10 renal
[3] = system: CCRF-CEM leukemia
[4] = system: SK-MEL-28 melanoma
[5] = system: PC-3 prostate
[6] = system: UO-31 renal
[7] = system: SW-620 colon
[8] = system: LOX IMVI melanoma
[9] = system: OVCAR-3 ovarian
[10] = system: KM12 colon
[11] = system: SN12C renal
[12] = system: MDA-MB-231 breast
[13] = system: MCF7 breast
[14] = system: SNB-19 CNS
[15] = system: T-47D breast
[16] = system: MOLT-4 leukemia
[17] = system: HS 578T breast
[18] = system: RPMI-8226 leukemia
[19] = system: UACC-62 melanoma
[20] = system: M14 melanoma
[21] = system: SF-268 CNS
[22] = system: SK-MEL-5 melanoma
[23] = system: HCT-15 colon
[24] = system: RXF 393 renal
[25] = system: SK-OV-3 ovarian
[26] = system: SF-295 CNS
[27] = system: EKVX NSCLC
[28] = system: OVCAR-4 ovarian
[29] = system: U251 CNS
[30] = system: OVCAR-8 ovarian
[31] = system: HCT-116 colon
[32] = system: CAKI-1 renal
[33] = system: HOP-92 NSCLC
[34] = system: A549 NSCLC
[35] = system: HOP-62 NSCLC
[36] = system: SR leukemia
[37] = system: BT-549 breast
[38] = system: A498 renal
[39] = system: 786-0 renal
[40] = system: OVCAR-5 ovarian
[41] = system: IGROV1 ovarian
[42] = system: NCI-H23 lung
[43] = system: NCI/ADR-RES ovarian
[44] = system: SNB-75 CNS
[45] = system: HL-60(TB) leukemia
[46] = system: NCI-H522 lung
[47] = system: COLO 205 colon
[48] = system: NCI-H226 lung
[49] = system: MDA-MB-435
[50] = system: UACC-257 melanoma
[51] = system: SF-539 CNS
[52] = system: HT29 colon
[53] = system: HCC-2998 colon
[54] = system: SK-MEL-2 melanoma
[55] = system: NCI-H460 lung
[56] = system: MALME-3M melanoma
[57] = system: DU-145 prostate

CC(=O)O[C@H]1C(=O)[C@@]2(C)[C@H]([C@H](OC(=O)c3ccccc3)[C@]3(O)C[C@H](OC(=O)[C@H](O)[C@@H](NC(=O)c4ccc(N(C)C)cc4)c4ccccc4)C(C)=C1C3(C)C)[C@]1(OC(C)=O)CO[C@@H]1C[C@@H]2O
TGI [1]: > 50 µM
TGI [2]: > 45.1 µM
TGI [3]: 2340 nM
TGI [4]: > 50 µM
TGI [5]: > 50 µM
TGI [6]: > 50 µM
TGI [7]: > 50 µM
TGI [8]: > 50 µM
TGI [9]: 6.3 nM
TGI [10]: > 50 µM
TGI [11]: > 50 µM
TGI [12]: > 50 µM
TGI [13]: > 50 µM
TGI [14]: > 50 µM
TGI [15]: > 50 µM
TGI [16]: > 21.9 µM
TGI [17]: 6.32 nM
TGI [18]: 7.95 nM
TGI [19]: > 50 µM
TGI [20]: > 50 µM
TGI [21]: > 50 µM
TGI [22]: > 22.1 µM
TGI [23]: > 50 µM
TGI [24]: 226 nM
TGI [25]: > 50 µM
TGI [26]: > 50 µM
TGI [27]: > 50 µM
TGI [28]: > 50 µM
TGI [29]: > 50 µM
TGI [30]: > 50 µM
TGI [31]: > 50 µM
TGI [32]: > 50 µM
TGI [33]: > 50 µM
TGI [34]: > 50 µM
TGI [35]: > 50 µM
TGI [36]: > 18.5 µM
TGI [37]: > 50 µM
TGI [38]: > 50 µM
TGI [39]: > 50 µM
TGI [40]: > 50 µM
TGI [41]: > 50 µM
TGI [42]: > 50 µM
TGI [43]: 16.7 µM
TGI [44]: > 50 µM
TGI [45]: 5.66 nM

O=C(O)Cn1ccc2ccccc21
GI50 [1]: > 100 µM
TGI [1]: > 100 µM
GI50 [46]: > 100 µM
TGI [46]: > 100 µM
GI50 [47]: > 100 µM
TGI [47]: > 100 µM
GI50 [3]: > 100 µM
TGI [3]: > 100000 nM
GI50 [4]: > 100 µM
TGI [4]: > 100 µM
GI50 [5]: > 100 µM
TGI [5]: > 100 µM
GI50 [6]: > 100 µM
TGI [6]: > 100 µM
GI50 [7]: > 100 µM
TGI [7]: > 100 µM
GI50 [8]: > 100 µM
TGI [8]: > 100 µM
GI50 [9]: > 100 µM
TGI [9]: > 100000 nM
GI50 [48]: > 100 µM
TGI [48]: > 100 µM
GI50 [10]: > 100 µM
TGI [10]: > 100 µM
GI50 [11]: > 100 µM
TGI [11]: > 100 µM
GI50 [49]: > 100 µM
TGI [49]: > 100 µM
GI50 [12]: > 100 µM
TGI [12]: > 100 µM
GI50 [50]: > 100 µM
TGI [50]: > 100 µM
GI50 [13]: > 100 µM
TGI [13]: > 100 µM
GI50 [14]: > 100 µM
TGI [14]: > 100 µM
GI50 [15]: > 100 µM
TGI [15]: > 100 µM
GI50 [51]: > 100 µM
TGI [51]: > 100 µM
GI50 [52]: > 100 µM
TGI [52]: > 100 µM
GI50 [17]: > 100 µM
TGI [17]: > 100000 nM
GI50 [18]: > 100 µM
TGI [18]: > 100000 nM
GI50 [19]: > 100 µM
TGI [19]: > 100 µM
GI50 [20]: > 100 µM
TGI [20]: > 100 µM
GI50 [21]: > 100 µM
TGI [21]: > 100 µM
GI50 [22]: > 100 µM
TGI [22]: > 100 µM
GI50 [23]: > 100 µM
TGI [23]: > 100 µM
GI50 [24]: > 100 µM
TGI [24]: > 100000 nM
GI50 [25]: > 100 µM
TGI [25]: > 100 µM
GI50 [53]: > 100 µM
TGI [53]: > 100 µM
GI50 [26]: > 100 µM
TGI [26]: > 100 µM
GI50 [27]: > 100 µM
TGI [27]: > 100 µM
GI50 [28]: > 100 µM
TGI [28]: > 100 µM
GI50 [29]: > 100 µM
TGI [29]: > 100 µM
GI50 [30]: > 100 µM
TGI [30]: > 100 µM
GI50 [31]: > 100 µM
TGI [31]: > 100 µM
GI50 [32]: > 100 µM
TGI [32]: > 100 µM
TGI [33]: > 100 µM
GI50 [34]: > 100 µM
TGI [34]: > 100 µM
GI50 [35]: > 100 µM
TGI [35]: > 100 µM
GI50 [54]: > 100 µM
TGI [54]: > 100 µM
GI50 [55]: > 100 µM
TGI [55]: > 100 µM
GI50 [37]: > 100 µM
TGI [37]: > 100 µM
GI50 [38]: > 100 µM
TGI [38]: > 100 µM
GI50 [39]: > 100 µM
TGI [39]: > 100 µM
GI50 [40]: > 100 µM
TGI [40]: > 100 µM
GI50 [41]: 72.7 µM
TGI [41]: > 100 µM
GI50 [42]: > 100 µM
TGI [42]: > 100 µM
GI50 [43]: > 100 µM
TGI [43]: > 100 µM
GI50 [44]: > 100 µM
TGI [44]: > 100 µM
GI50 [56]: > 100 µM
TGI [56]: > 100 µM
GI50 [57]: > 100 µM
TGI [57]: > 100 µM
